According to ChEMBL document CHEMBL3991601, “The target landscape of clinical kinase drugs” (Science, 2017):
Calls of active or inactive are those of the source. Cut-off read from the data, not from the text of the source, for most assays here: actives have a measured Kd and inactives only a lower limit.

Tests used:
Midasin = Midasin (Homo sapiens, UniProt Q9NU22)
[1] = molecular target: T1, Serine/threonine-protein kinase 4 (Homo sapiens, UniProt Q13043)
T1 sequence (Q13043 whole entry): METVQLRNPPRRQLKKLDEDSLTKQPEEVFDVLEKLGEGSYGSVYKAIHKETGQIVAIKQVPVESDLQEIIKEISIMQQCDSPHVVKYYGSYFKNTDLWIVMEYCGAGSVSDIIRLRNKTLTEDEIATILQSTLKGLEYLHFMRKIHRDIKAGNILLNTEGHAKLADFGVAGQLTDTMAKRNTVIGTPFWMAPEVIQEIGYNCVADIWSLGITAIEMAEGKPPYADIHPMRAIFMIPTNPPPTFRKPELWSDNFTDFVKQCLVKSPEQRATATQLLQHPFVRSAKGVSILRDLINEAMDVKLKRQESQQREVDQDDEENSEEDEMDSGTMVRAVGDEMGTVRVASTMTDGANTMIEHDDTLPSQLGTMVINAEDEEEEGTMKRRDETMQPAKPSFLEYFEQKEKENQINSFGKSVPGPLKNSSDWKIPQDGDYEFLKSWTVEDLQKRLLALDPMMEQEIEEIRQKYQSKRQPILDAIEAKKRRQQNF

[2] = molecular target: cAMP-dependent protein kinase catalytic subunit beta (Homo sapiens, UniProt P22694)
[3] = molecular target: T2, ATP-dependent 6-phosphofructokinase, platelet type (Homo sapiens, UniProt Q01813)
T2 sequence (Q01813 whole entry): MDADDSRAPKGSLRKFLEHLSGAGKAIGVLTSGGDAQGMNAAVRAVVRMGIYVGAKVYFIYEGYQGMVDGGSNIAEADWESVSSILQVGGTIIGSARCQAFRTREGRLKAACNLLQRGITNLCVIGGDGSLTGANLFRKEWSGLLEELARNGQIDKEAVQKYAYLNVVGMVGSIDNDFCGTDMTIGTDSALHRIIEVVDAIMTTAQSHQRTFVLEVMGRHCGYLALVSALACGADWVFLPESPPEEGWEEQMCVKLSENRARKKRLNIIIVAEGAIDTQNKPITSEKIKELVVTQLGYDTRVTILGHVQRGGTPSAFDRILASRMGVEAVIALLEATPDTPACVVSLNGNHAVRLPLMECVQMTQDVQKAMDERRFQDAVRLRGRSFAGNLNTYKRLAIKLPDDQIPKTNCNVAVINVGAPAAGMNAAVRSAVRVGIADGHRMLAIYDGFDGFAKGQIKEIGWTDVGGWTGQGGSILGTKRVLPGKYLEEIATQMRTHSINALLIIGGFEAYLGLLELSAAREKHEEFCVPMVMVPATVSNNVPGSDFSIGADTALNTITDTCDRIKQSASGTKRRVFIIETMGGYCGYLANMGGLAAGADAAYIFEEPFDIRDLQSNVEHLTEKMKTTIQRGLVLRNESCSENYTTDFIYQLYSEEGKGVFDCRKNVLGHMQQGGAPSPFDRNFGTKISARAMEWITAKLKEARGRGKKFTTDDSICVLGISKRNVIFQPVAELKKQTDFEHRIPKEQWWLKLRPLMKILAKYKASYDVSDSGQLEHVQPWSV

[4] = molecular target: DNA topoisomerase 2-alpha (Homo sapiens, UniProt P11388)
[5] = molecular target: Putative heat shock protein HSP 90-beta 2 (Homo sapiens, UniProt Q58FF8)
[6] = molecular target: Dual specificity protein kinase CLK1 (Homo sapiens, UniProt P49759)
[7] = molecular target: T3, Cyclin-G-associated kinase (Homo sapiens, UniProt O14976)
T3 sequence (O14976 whole entry): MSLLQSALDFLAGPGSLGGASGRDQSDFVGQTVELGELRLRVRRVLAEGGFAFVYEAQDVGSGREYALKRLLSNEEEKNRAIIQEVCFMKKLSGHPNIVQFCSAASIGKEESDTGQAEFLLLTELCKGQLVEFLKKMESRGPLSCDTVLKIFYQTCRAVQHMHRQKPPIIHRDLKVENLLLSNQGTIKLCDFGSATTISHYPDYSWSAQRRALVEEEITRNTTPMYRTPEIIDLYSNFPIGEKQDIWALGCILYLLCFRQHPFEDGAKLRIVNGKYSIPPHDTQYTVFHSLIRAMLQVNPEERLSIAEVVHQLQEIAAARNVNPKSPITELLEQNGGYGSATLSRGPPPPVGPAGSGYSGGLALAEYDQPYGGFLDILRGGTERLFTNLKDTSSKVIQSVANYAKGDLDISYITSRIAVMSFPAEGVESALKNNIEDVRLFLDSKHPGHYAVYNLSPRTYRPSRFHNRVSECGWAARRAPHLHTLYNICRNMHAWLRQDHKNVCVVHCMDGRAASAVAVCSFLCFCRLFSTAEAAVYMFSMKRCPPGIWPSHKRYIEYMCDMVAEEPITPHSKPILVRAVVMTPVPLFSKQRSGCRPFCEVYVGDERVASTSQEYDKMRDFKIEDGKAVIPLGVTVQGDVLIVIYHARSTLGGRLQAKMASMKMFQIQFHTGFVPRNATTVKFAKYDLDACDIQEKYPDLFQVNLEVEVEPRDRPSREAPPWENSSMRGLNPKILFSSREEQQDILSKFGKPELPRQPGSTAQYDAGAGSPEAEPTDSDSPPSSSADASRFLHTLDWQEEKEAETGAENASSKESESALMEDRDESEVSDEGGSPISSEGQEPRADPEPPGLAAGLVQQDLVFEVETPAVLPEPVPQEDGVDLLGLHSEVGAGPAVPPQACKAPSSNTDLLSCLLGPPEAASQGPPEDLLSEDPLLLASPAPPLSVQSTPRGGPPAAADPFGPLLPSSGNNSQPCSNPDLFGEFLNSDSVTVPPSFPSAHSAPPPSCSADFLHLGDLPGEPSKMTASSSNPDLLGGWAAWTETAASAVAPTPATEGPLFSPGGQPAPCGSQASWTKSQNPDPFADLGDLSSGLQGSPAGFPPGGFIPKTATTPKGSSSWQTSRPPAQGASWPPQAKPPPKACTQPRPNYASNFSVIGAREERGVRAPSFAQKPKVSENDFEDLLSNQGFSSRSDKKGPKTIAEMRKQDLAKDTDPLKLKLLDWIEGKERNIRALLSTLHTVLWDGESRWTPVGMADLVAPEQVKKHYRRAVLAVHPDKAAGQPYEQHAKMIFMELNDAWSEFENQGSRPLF

[8] = molecular target: Serine/threonine-protein kinase SIK2 (Homo sapiens, UniProt Q9H0K1)
[9] = molecular target: Protein kinase C beta type (Homo sapiens, UniProt P05771)
[10] = molecular target: Mitogen-activated protein kinase 8 (Homo sapiens, UniProt P45983)
Note: in the data inactive means no Kd found up to 30 µM.

Serine/threonine-protein kinase SIK2, sequence (Q9H0K1 whole entry): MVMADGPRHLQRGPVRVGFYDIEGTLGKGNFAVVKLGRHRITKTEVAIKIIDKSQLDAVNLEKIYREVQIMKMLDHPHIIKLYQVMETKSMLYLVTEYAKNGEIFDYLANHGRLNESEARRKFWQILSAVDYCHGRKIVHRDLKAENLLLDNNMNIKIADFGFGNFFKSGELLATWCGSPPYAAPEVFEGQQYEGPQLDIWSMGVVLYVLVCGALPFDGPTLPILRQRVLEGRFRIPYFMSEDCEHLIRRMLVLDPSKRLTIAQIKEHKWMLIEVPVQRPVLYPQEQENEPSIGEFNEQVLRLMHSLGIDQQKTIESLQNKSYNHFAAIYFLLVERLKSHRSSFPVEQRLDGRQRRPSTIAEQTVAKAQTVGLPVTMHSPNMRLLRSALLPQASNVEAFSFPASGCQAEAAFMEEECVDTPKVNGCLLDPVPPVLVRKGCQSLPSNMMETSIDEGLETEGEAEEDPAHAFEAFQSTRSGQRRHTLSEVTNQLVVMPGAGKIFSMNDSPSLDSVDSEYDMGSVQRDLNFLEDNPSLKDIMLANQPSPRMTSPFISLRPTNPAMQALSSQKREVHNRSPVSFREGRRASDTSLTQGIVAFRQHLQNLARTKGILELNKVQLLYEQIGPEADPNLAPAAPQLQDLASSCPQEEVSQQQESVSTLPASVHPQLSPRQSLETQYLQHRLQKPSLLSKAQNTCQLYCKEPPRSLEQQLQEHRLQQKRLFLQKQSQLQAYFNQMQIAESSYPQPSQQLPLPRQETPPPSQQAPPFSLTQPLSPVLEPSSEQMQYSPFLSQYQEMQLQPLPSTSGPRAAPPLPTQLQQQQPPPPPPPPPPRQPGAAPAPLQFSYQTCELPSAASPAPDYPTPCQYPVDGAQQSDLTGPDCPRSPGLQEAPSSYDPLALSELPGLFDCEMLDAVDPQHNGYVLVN
Mitogen-activated protein kinase 8, sequence (P45983 whole entry): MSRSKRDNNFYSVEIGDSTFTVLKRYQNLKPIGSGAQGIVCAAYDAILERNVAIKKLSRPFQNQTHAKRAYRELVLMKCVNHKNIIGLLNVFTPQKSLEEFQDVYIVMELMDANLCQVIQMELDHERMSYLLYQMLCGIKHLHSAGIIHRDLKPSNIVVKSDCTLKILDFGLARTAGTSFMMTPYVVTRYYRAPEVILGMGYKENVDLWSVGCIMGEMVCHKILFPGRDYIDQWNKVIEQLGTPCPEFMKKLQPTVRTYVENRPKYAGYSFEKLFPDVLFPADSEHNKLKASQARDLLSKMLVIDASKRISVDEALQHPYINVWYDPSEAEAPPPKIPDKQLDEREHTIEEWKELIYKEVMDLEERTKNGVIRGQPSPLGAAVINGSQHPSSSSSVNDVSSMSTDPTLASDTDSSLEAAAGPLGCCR
DNA topoisomerase 2-alpha, sequence (P11388 whole entry): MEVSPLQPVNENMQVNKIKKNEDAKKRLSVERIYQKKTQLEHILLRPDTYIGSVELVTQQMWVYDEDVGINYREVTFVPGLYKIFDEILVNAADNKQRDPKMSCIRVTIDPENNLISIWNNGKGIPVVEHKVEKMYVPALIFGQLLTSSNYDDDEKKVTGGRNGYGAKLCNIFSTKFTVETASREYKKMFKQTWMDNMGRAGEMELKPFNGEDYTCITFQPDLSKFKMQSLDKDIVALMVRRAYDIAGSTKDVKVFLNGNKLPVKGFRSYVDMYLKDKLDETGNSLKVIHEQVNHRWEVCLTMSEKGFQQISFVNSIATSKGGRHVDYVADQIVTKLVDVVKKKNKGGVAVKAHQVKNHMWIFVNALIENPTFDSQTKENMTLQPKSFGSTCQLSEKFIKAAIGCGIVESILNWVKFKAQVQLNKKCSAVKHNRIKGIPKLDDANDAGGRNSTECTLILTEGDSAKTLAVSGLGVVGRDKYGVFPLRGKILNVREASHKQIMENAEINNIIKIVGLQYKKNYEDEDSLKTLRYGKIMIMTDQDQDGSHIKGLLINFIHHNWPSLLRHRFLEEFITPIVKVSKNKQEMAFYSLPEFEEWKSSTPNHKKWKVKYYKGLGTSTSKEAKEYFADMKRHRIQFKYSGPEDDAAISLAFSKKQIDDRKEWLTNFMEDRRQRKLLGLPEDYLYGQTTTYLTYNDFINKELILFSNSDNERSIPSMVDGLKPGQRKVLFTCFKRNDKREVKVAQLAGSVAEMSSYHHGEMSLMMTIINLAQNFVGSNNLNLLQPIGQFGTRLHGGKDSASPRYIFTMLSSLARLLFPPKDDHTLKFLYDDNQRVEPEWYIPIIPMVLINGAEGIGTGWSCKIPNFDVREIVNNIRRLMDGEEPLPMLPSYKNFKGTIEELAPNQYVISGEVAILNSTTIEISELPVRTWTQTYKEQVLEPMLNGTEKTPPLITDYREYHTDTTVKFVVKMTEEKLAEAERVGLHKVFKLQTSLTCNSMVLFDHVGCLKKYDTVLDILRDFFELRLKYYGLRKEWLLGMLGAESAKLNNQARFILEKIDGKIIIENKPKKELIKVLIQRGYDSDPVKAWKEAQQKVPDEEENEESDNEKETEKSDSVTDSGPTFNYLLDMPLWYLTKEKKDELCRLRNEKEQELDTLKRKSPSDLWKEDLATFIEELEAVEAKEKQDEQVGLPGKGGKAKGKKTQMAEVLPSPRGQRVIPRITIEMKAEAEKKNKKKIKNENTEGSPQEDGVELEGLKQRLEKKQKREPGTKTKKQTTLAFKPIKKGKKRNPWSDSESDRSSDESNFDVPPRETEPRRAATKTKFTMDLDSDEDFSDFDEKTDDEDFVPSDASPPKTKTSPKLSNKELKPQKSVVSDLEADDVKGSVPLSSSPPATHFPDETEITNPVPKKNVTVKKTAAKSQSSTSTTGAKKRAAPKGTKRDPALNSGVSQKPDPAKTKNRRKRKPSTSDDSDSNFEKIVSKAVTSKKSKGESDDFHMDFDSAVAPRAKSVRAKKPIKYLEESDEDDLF
Protein kinase C beta type, sequence (P05771 whole entry): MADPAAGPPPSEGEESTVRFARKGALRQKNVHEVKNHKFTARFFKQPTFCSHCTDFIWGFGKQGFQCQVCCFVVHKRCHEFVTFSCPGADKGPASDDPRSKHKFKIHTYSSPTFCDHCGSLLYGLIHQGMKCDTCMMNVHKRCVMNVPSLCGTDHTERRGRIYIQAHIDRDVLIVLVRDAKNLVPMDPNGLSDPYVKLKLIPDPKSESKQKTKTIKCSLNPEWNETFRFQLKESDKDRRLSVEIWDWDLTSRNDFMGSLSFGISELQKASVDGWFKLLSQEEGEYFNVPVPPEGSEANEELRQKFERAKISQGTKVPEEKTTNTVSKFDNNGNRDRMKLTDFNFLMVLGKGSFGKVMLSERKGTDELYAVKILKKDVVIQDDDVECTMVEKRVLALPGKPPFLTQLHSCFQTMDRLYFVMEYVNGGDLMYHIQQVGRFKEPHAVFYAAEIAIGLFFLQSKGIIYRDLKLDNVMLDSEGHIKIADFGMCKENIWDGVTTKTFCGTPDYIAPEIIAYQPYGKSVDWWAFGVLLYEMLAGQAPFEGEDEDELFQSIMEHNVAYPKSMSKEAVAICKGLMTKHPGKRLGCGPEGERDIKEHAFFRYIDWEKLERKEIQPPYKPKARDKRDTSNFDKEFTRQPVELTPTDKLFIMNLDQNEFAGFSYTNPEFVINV
Putative heat shock protein HSP 90-beta 2, sequence (Q58FF8 whole entry): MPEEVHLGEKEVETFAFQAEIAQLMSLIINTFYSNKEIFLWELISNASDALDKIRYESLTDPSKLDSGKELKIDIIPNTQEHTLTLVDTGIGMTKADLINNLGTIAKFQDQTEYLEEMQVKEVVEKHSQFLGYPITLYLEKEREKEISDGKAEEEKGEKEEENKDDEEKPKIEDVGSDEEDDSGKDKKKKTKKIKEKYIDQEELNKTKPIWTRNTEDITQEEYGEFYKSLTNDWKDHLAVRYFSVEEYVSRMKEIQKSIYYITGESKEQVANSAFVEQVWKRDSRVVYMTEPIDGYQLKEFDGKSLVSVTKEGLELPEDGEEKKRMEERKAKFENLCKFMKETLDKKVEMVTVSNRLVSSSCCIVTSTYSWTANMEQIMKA
Dual specificity protein kinase CLK1, sequence (P49759 whole entry): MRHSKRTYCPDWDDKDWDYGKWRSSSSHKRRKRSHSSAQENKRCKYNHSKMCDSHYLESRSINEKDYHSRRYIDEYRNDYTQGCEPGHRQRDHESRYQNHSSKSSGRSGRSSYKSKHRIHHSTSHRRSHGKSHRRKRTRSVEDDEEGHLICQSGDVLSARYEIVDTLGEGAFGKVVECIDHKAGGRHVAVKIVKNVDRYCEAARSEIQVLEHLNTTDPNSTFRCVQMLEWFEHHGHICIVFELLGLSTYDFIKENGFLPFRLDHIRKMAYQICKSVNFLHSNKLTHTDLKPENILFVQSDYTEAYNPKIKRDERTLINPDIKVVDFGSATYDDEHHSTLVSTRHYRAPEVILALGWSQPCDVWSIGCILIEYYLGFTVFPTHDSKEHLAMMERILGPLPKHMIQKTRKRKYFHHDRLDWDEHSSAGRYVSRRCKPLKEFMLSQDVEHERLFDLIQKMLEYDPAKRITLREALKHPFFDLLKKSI

CCc1cnn2c(NCc3ccc[n+]([O-])c3)cc(N3CCCC[C@H]3CCO)nc12 [DINACICLIB]
Kd (Midasin): > 30 µM (inactive)
Kd [1]: > 30 µM (inactive)
Kd [2]: > 30 µM (inactive)
Kd [3]: > 30 µM (inactive)
Kd [4]: > 30 µM (inactive)
Kd [5]: > 30 µM (inactive)
Kd [6]: 0.714 µM (active)
Kd [7]: > 30 µM (inactive)
Kd [8]: > 30 µM (inactive)
Kd [9]: > 30 µM (inactive)

CNC(=O)CN1CCC(Oc2cc3c(Nc4cccc(Cl)c4F)ncnc3cc2OC)CC1 [SAPITINIB]
Kd (Midasin): > 30 µM (inactive)
Kd [1]: > 30 µM (inactive)
Kd [10]: > 30 µM (inactive)
Kd [2]: > 30 µM (inactive)
Kd [3]: > 30 µM (inactive)
Kd [5]: > 30 µM (inactive)
Kd [6]: > 30 µM (inactive)
Kd [7]: 0.176 µM (active)
Kd [8]: > 30 µM (inactive)
Kd [9]: > 30 µM (inactive)

CNC(=O)c1ccc(C)c(-n2c(C)cc(OCc3ccc(F)cc3F)c(Br)c2=O)c1 [PH-797804]
Kd (Midasin): > 30 µM (inactive)
Kd [1]: > 30 µM (inactive)
Kd [10]: > 30 µM (inactive)
Kd [2]: > 30 µM (inactive)
Kd [3]: > 30 µM (inactive)
Kd [5]: > 30 µM (inactive)
Kd [6]: > 30 µM (inactive)
Kd [7]: > 30 µM (inactive)
Kd [8]: > 30 µM (inactive)
Kd [9]: > 30 µM (inactive)

COC(=O)[C@@]1(O)C[C@H]2O[C@]1(C)n1c3ccccc3c3c4c(c5c6ccccc6n2c5c31)C(=O)NC4 [K-252A]
Kd (Midasin): > 30 µM (inactive)
Kd [1]: 0.029 µM (active)
Kd [2]: > 30 µM (inactive)
Kd [3]: > 30 µM (inactive)
Kd [4]: > 30 µM (inactive)
Kd [5]: > 30 µM (inactive)
Kd [6]: 0.01 µM (active)
Kd [7]: 1.27 µM (active)
Kd [8]: 0.058 µM (active)

CN1CCC(COc2cnc(-c3cccc(Cn4nc(-c5cccc(C#N)c5)ccc4=O)c3)nc2)CC1 [TEPOTINIB]
Kd (Midasin): > 30 µM (inactive)
Kd [1]: > 30 µM (inactive)
Kd [2]: > 30 µM (inactive)
Kd [3]: > 30 µM (inactive)
Kd [5]: > 30 µM (inactive)
Kd [6]: > 30 µM (inactive)
Kd [7]: > 30 µM (inactive)
Kd [8]: > 30 µM (inactive)
Kd [9]: > 30 µM (inactive)

Cc1cc2c(F)c(Oc3ncnn4cc(OC[C@@H](C)OC(=O)[C@H](C)N)c(C)c34)ccc2[nH]1 [BRIVANIB ALANINATE]
Kd (Midasin): > 30 µM (inactive)
Kd [1]: > 30 µM (inactive)
Kd [10]: > 30 µM (inactive)
Kd [2]: > 30 µM (inactive)
Kd [3]: > 30 µM (inactive)
Kd [5]: > 30 µM (inactive)
Kd [6]: > 30 µM (inactive)
Kd [7]: > 30 µM (inactive)
Kd [8]: > 30 µM (inactive)
Kd [9]: > 30 µM (inactive)

Cc1cn(-c2cc(NC(=O)c3ccc(C)c(Nc4nccc(-c5cccnc5)n4)c3)cc(C(F)(F)F)c2)cn1 [NILOTINIB]
Kd (Midasin): > 30 µM (inactive)
Kd [3]: > 30 µM (inactive)
Kd [4]: > 30 µM (inactive)
Kd [5]: > 30 µM (inactive)
Kd [9]: > 30 µM (inactive)

Cc1cc(Nc2cc(N3CCN(C)CC3)nc(/C=C/c3ccccc3)n2)n[nH]1 [ENMD-2076]
Kd (Midasin): > 30 µM (inactive)
Kd [2]: > 30 µM (inactive)
Kd [3]: > 30 µM (inactive)
Kd [4]: > 30 µM (inactive)
Kd [5]: > 30 µM (inactive)
Kd [7]: > 30 µM (inactive)
Kd [8]: > 30 µM (inactive)
Kd [9]: > 30 µM (inactive)

OCCn1cc(-c2cnc3nnn(Cc4ccc5ncccc5c4)c3n2)cn1 [PF-04217903]
Kd (Midasin): > 30 µM (inactive)
Kd [1]: > 30 µM (inactive)
Kd [2]: > 30 µM (inactive)
Kd [3]: > 30 µM (inactive)
Kd [4]: > 30 µM (inactive)
Kd [5]: > 30 µM (inactive)
Kd [6]: > 30 µM (inactive)
Kd [7]: > 30 µM (inactive)
Kd [8]: > 30 µM (inactive)
Kd [9]: > 30 µM (inactive)

O=C(Nc1cccc(Cl)c1)Nc1ncc(CCNc2ncnc3ccsc23)s1 [SNS-314]
Kd (Midasin): > 30 µM (inactive)
Kd [1]: > 30 µM (inactive)
Kd [2]: > 30 µM (inactive)
Kd [3]: > 30 µM (inactive)
Kd [4]: > 30 µM (inactive)
Kd [5]: > 30 µM (inactive)
Kd [6]: > 30 µM (inactive)
Kd [7]: > 30 µM (inactive)
Kd [8]: > 30 µM (inactive)
Kd [9]: > 30 µM (inactive)

Cc1nc(N)sc1-c1ccnc(Nc2ccc(N3CCOCC3)cc2)n1 [CYC-116]
Kd (Midasin): > 30 µM (inactive)
Kd [3]: > 30 µM (inactive)
Kd [4]: > 30 µM (inactive)
Kd [5]: > 30 µM (inactive)
Kd [6]: 0.586 µM (active)
Kd [7]: 0.196 µM (active)
Kd [8]: 1.4 µM (active)
Kd [9]: > 30 µM (inactive)

COc1cc2nccc(Oc3ccc(NC(=O)NC4CC4)c(Cl)c3)c2cc1C(N)=O [LENVATINIB]
Kd (Midasin): > 30 µM (inactive)
Kd [1]: > 30 µM (inactive)
Kd [2]: > 30 µM (inactive)
Kd [3]: > 30 µM (inactive)
Kd [4]: > 30 µM (inactive)
Kd [5]: > 30 µM (inactive)
Kd [6]: > 30 µM (inactive)
Kd [8]: > 30 µM (inactive)
Kd [9]: > 30 µM (inactive)

CCn1c(-c2nonc2N)nc2c(C#CC(C)(C)O)ncc(OC[C@H]3CCCNC3)c21 [GSK-690693]
Kd (Midasin): > 30 µM (inactive)
Kd [3]: > 30 µM (inactive)
Kd [4]: > 30 µM (inactive)
Kd [5]: > 30 µM (inactive)
Kd [9]: 0.31 µM (active)

CN1CCN(c2ccc3nc(-c4c(N)c5c(F)cccc5[nH]c4=O)[nH]c3c2)CC1 [DOVITINIB]
Kd (Midasin): > 30 µM (inactive)
Kd [3]: > 30 µM (inactive)
Kd [5]: > 30 µM (inactive)
Kd [9]: > 30 µM (inactive)

Nc1nc(N)c2nc(-c3cccc(O)c3)c(-c3cccc(O)c3)nc2n1 [TG100-115]
Kd (Midasin): > 30 µM (inactive)
Kd [3]: > 30 µM (inactive)
Kd [4]: > 30 µM (inactive)
Kd [5]: > 30 µM (inactive)
Kd [7]: > 30 µM (inactive)
Kd [9]: > 30 µM (inactive)

Cc1ccc(NC(=O)c2ccc(CN3CC[C@H](N(C)C)C3)c(C(F)(F)F)c2)cc1Nc1nccc(-c2cncnc2)n1 [BAFETINIB]
Kd (Midasin): > 30 µM (inactive)
Kd [1]: > 30 µM (inactive)
Kd [10]: > 30 µM (inactive)
Kd [2]: > 30 µM (inactive)
Kd [5]: > 30 µM (inactive)
Kd [6]: > 30 µM (inactive)
Kd [7]: > 30 µM (inactive)
Kd [8]: > 30 µM (inactive)
Kd [9]: > 30 µM (inactive)
